Assay results: ChEMBL document CHEMBL1201862, “PubChem BioAssay data set” (2004)
Each block holds one compound with its values, some of them ahead of it. Active and inactive are the calls of the source.

Key:
[1] = growth inhibition of PfATP4-mutant resistant parasites – NITD609-resistant line, SYBR Green, dry powder, dose response (AID 1159571); format: functional, cell-based;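 further: parasites synchronized at ring stage by sorbitol before testing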
[2] = Plasmodium falciparum Dd2 Sybr green parasite growth Measured in Cell-Based and Microorganism Combination System Using Plate Reader - 2153-01_Inhibitor_Dose_DryPowder_Activity_Set3.; format: functional
[3] = growth inhibition of yeast DHODH-expressing 3D7 parasites – SYBR Green, dry powder samples, dose response (AID 1159570); format: functional, cell-based;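 further: parasite growth measured after 72 hours of compound exposure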
[4] = Dd2 malaria parasite growth inhibition potency – SYBR Green, dry powder samples, dose response (AID 1159566); format: functional, cell-based;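 further: potency for growth inhibition with lower SYBR green DNA signal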
[5] = P. falciparum Dd2 growth inhibitors, dose response, SYBR Green, cherry-picked samples (AID 1159567); format: functional, cell-based
[6] = Dd2 parasite growth inhibition in erythrocytes – SYBR Green, dry powder samples, set 9, dose response (AID 1159568); format: functional, cell-based
[7] = Luminescence Cell-Based Dose Confirmation HTS to Identify Inhibitors of Polyadenylation.; format: functional
[8] = biological target: T1, Cytochrome P450 2C19 (Homo sapiens, UniProt P33261); assay: Cytochrome panel assay with activity outcomes. Panel member name: p450-cyp2c19 Compounds with AC50 equal or less than 10 uM are considered active; format: functional; conditions: read-out: AC50
T1 sequence (P33261 whole entry): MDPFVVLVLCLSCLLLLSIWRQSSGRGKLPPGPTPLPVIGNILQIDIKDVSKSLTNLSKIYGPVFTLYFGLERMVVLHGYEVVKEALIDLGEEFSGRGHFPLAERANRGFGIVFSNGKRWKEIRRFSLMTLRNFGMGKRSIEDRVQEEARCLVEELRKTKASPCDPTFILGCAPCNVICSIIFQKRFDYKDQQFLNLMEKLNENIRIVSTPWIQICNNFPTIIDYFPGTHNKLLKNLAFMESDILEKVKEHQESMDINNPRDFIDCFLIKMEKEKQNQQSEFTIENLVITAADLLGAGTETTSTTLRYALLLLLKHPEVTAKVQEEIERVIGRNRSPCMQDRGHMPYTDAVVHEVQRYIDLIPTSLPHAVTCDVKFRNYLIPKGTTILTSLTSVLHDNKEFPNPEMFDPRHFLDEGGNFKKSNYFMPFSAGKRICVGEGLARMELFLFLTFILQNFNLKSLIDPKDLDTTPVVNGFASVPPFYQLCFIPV

[9] = biological target: T1, Cytochrome P450 2C19; assay: qHTS Assay for Inhibitors and Substrates of Cytochrome P450 2C19. [Related pubchem assays: 410 ]; format: ADME; conditions: read-out: Potency
[10] = biological target: Cytochrome P450 2D6 (Homo sapiens, UniProt P10635); assay: qHTS Assay for Inhibitors and Substrates of Cytochrome P450 2D6. [Related pubchem assays: 410 ]; format: ADME; conditions: read-out: Potency
Cytochrome P450 2D6, sequence (P10635 whole entry): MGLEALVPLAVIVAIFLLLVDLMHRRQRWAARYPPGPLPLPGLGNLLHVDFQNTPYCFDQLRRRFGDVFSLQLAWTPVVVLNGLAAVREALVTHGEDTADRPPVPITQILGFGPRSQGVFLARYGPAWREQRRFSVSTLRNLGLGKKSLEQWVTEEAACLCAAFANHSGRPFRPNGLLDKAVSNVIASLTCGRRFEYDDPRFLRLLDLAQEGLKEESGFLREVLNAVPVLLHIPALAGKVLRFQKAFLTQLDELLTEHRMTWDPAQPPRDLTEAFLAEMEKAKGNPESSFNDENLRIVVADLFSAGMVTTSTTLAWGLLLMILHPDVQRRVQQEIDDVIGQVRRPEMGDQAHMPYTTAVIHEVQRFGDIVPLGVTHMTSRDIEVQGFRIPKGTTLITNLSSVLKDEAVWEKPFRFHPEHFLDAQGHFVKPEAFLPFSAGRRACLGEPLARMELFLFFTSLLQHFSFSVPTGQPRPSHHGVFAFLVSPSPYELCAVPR

[11] = biological target: Cytochrome P450 2C9 (Homo sapiens, UniProt P11712); conditions: Potency
Cytochrome P450 2C9, sequence (P11712 whole entry): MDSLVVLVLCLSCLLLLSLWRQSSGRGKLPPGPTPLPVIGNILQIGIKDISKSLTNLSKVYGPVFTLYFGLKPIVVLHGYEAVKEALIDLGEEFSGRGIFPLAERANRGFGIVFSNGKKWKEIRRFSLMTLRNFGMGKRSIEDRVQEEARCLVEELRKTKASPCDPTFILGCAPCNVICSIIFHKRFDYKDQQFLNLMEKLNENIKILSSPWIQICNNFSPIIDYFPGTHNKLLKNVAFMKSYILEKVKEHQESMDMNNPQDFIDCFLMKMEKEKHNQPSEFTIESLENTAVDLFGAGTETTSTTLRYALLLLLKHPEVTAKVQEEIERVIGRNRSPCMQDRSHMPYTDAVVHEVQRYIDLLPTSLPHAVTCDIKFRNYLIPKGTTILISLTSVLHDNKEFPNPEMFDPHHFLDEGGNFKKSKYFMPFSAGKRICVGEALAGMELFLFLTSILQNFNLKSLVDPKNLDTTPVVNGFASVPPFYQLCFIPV

SMILES: CCCNC(=O)Nc1ccc2c(c1)OC[C@@H](C)N(Cc1ccccc1)C[C@@H](C)[C@H](OC)CN(C)C2=O
AC50 [1]: 828 nM (active)
AC50 [2]: 826 nM (active)
AC50 [3]: 3250 nM (active)
AC50 [4]: 154 nM (active)
AC50 [5]: 1430 nM (active)
AC50 [6]: 307 nM (active)

SMILES: CCCCCCCCCCCC(=O)N/N=C/c1ccco1
EC50 [7]: > 120000 nM (not active)

AC50 [8]: 10000 nM (inconclusive)
AC50 [9]: 1000 nM (inconclusive)
SMILES: COc1cc2c(cc1C(F)(F)F)N(C(=O)Nc1cc(F)cc(-c3cccnc3)c1)CC2

AC50 [10]: 3160 nM (inconclusive)
AC50 [9]: 6310 nM (inconclusive)
AC50 [11]: 1000 nM (inconclusive)
SMILES: COC(=O)NC(c1ccco1)C(C(C)=O)C(=O)OC (configuration not stated)
